Laboratory results from patent US8426559B2, “Injectable β-hairpin peptide hydrogel that kills methicillin-resistant Staphylococcus aureus” (University of Delaware, priority 2009, dated 2013).
Non-standard residues stand in square brackets, D forms with d. Residues, ends and D or L forms follow the SMILES beside them.

Experiments:
[1] = tested on: MRSA (methicillin-resistant Staphylococcus aureus, ATCC 33591); test: Antibacterial assay: bacteria introduced onto hydrogel-coated TCTP surface, proliferation by OD625nm; assay type: cell-based; conditions: 2 wt % hydrogel on TCTP, 24 hr at 37° C.
Procedure: The antibacterial activity of MARG1 hydrogels was assessed via two distinct assays. In the first assay, bacteria were introduced to the surface of tissue culture treated polystyrene (TCTP) coated with a ˜1-2 mm layer of the gel and its ability to inhibit bacterial proliferation was assessed. This assay measures the ability of MARG1 gels to thwart new infection at a particular site. Here, gels were formed directly on the polystyrene surface without the aid of shear-thin delivery. In the second assay, MARG1 gels were shear-thin delivered via syringe to agar surfaces infected with bacteria, and the ability of the gel to kill bacteria on contact was measured. […]
The gels were incubated for 24 hr at 37° C., and bacterial proliferation was quantitated by light scattering as described in Salick, D. A.; Kretsinger, J. K.; Pochan, D. J.; Schneider, J. P. J. Am. […]
(§1) For each assay, 100 μL of bacteria-free TSB was introduced onto the surface of the hydrogels. […] After this, bacterial growth was monitored by measuring OD625nm of the liquid above the gel by adding 100 μL of bacteria-free TSB to the surfaces, gently mixing and transferring the supernatant to a cuvette. Corrected OD625nm values were calculated to correct for dilution and to normalize for scattering that occurs for each individual bacterial strain. […]

[2] = tested on: MSSA (methicillin-susceptible Staphylococcus aureus, ATCC 25923); test: as above; assay type: cell-based; conditions: 2 wt % hydrogel on TCTP, all bacterial cell loading densities, 24 h, compared to uncoated surface
Procedure: The antibacterial activity of MARG1 hydrogels was assessed via two distinct assays. In the first assay, bacteria were introduced to the surface of tissue culture treated polystyrene (TCTP) coated with a ˜1-2 mm layer of the gel and its ability to inhibit bacterial proliferation was assessed. This assay measures the ability of MARG1 gels to thwart new infection at a particular site. Here, gels were formed directly on the polystyrene surface without the aid of shear-thin delivery. In the second assay, MARG1 gels were shear-thin delivered via syringe to agar surfaces infected with bacteria, and the ability of the gel to kill bacteria on contact was measured. This assay simulates the introduction of the MARG1 gel via syringe to a bacterial contaminated surface, such as a wound.
Hydrogels for the antibacterial assays were prepared in separate wells of 96-well tissue culture-treated polystyrene plates (Costar 3595). […]
as §1

[3] = tested on: C3H10t1/2 mesenchymal stem cells; test: Cytotoxicity of hydrogel towards mammalian cells, live/dead viability assay; assay type: cell-based, murine
Procedure: The confocal images show live/dead viability assays performed using murine C3H10t1/2 mesenchymal stem cells that had been cultured for 24 h on (A) a 2 wt % MARG1 hydrogel surface and on (B) a TCTP control surface. This cell line was chosen because these cells are sensitive to their environment and thus good indicators of a material's cytotoxic properties.
The images in FIGS. 5A,B are rendered in black and white, where the light areas represent cells that fluoresce green (live cells) and dark areas represent cells that fluoresce red (dead cells).
C3H10t1/2 mesenchymal stem cells (ATCC # CCL-226) were cultured using Dulbecco's Modified Eagle's Medium (DMEM, Sigma Aldrich, D6546) supplemented with 10% Fetal Bovine Serum, 5 mM L-Glutamine, 50 μg/mL Gentamicin at 37° C. in 5% CO2. Cells were cultured in T75 cell culture flasks. Cells were kept in culture for seven passages and used for cellular viability on passage number 7. For cell plating, cells were trypsinized and counted using a hemacytometer. The resultant cell suspension was introduced to the hydrogel and control surfaces such that a cell loading density of 30,000 cells/cm^2 was achieved. These samples were incubated for 24 hours at 37° C., 5% CO2. […]

| Molecule | MRSA proliferation on hydrogel-coated surface (OD) ([1]; challenged with 2×10^8 CFU/dm^2 MRSA) | MRSA proliferation on hydrogel-coated surface (OD) ([1]; lower CFUs of MRSA) | MSSA proliferation on hydrogel-coated surface (OD) [2] | Cytotoxicity towards mammalian cells ([3]; C3H10t1/2 cells cultured 24 h on 2 wt % hydrogel surface) | Viability of cells cultured on hydrogel surface versus TCTP control ([3]; C3H10t1/2 cells, 24 h, 2 wt % hydrogel surface) |
| --- | --- | --- | --- | --- | --- |
| VKVKVKVKV^DPPTKVKVKVKV-NH2 [MAX1] | uninhibited MRSA proliferation | inhibiting MRSA at lower CFUs | can inhibit bacterial proliferation |  |  |
| CC(C)[C@H](N)C(=O)N[C@@H](CCCCN)C(=O)N[C@H](C(=O)N[C@@H](CCCCN)C(=O)N[C@H](C(=O)N[C@@H](CCCNC(=N)N)C(=O)N[C@H](C(=O)N[C@@H](CCCCN)C(=O)N[C@H](C(=O)N1CCC[C@@H]1C(=O)N1CCC[C@H]1C(=O)N[C@H](C(=O)N[C@@H](CCCCN)C(=O)N[C@H](C(=O)N[C@@H](CCCCN)C(=O)N[C@H](C(=O)N[C@@H](CCCNC(=N)N)C(=O)N[C@H](C(=O)N[C@@H](CCCCN)C(=O)N[C@H](C(N)=O)C(C)C)C(C)C)C(C)C)C(C)C)[C@@H](C)O)C(C)C)C(C)C)C(C)C)C(C)C [MARG1, VKVKVRVKV^DPPTKVKVRVKV-NH2] (H-VKVKVRVKV[dP]PTKVKVRVKV-NH2) |  |  |  | non-cytotoxic | no significant difference |
